Source: patent US10023565B2, “N,N′ substituted piperidinamine compounds, and preparation method and usage thereof” (Institute of Pharmacology and Toxicology Academy of …, priority 2013, dated 2018)

Tests used:
Experiment in all cases: Antitumor bioactivity evaluation, breast cancer cells (ATPlite)
BT/Lap^R1.0 = format: cell-based, human; details: Homo sapiens; test sample 5 μM, 72 hours; read-out: Inhibitory Rate % BT/Lap^R1.0
Protocol: (§1) Antitumor bioactivity evaluation of the compounds of Examples according to the method described below
(§2) Cells plating: a 100 mm culture dish with overgrown adherent cells was digested with 1 ml 0.25% trypsin (GIBCO) at 37° C. for 5 min, and the reaction was terminated with 2 ml culture medium (containing 10% FBS, GIBCO). The cells were scattered and collected, after counting, diluted to 1×10^5 cells/ml, and seeded into a 96-well plate at 50 μl/well, 5000 cells/well, excluding the peripheral circle of wells in which no cell was added, but PBS was added, 60 wells in total, and then incubated at 37° C. for 24 hours for adhering.
(§3) Addition of the compound and lapatinib: the test sample was diluted to a final concentration of 5 μM, and the culture medium with the corresponding compound solvent concentration was filled in the control well, the compound solvent concentration was kept consistent in each well, 5 parellel wells were set for each concentration, 25 μl each well, 25 μl culture medium (in combined group, 25 μl lapatinib was added till a final concentration of 1 μM) supplemented, followed by incubation at 37° C. for 72 hours.
(§4) Test after incubation at 37° C. for 72 hours: 50 μL of ATPlite kit substrate solution was added in each well, and vibrated for 3 min, followed by placing aside in darkness for 10 min, and then supernatant 100 μl/well was taken and placed on aluminescence test plate; the luminescence test plate that has been fully incubated was placed in a luminescence test instrument, to read luminescence value.
(§5) 1. Cell survival rate (%)=Experimental group RLU/control group RLU×100%. The experimental data were subjected to data analysis and processing by utilizing GraphPad software.

MDA-MB-453 = format: cell-based; details: Homo sapiens, test sample 5 μM, 72 hours, read-out: Inhibitory Rate % MDA-MB-453
Protocol: as §1, §2, §3, §4, §5

SK-BR3 = format: cell-based; details: Homo sapiens, SK-BR-3; test sample 5 μM, 72 hours; read-out: Inhibitory Rate % SK-BR3
Protocol: as §1, §2, §3, §4, §5

BT474 = format: cell-based; details: Homo sapiens, BT-474; test sample 5 μM, 72 hours; read-out: Inhibitory Rate % BT474
Protocol: as §1, §2, §3, §4, §5

MDA-MB-361 = format: cell-based; details: Homo sapiens, test sample 5 μM, 72 hours, read-out: Inhibitory Rate % MDA-MB-361
Protocol: as §1, §2, §3, §4, §5

SK/Lap^R1.0 = format: cell-based; details: Homo sapiens; test sample 5 μM, 72 hours; read-out: Inhibitory Rate % SKLap^R1.0
Protocol: as §1, §2, §3, §4, §5

## CSc1nccc(N2CCC(N(C)Cc3cccc(F)c3)CC2)n1 [Example 45, N-methyl-N-(3-fluorobenzyl)-N-[1-(2-methylthiopyrimidin-4-yl)piperidin-4-yl]amine]
BT/Lap^R1.0
  inhibition at 5 µM: 17.5%
MDA-MB-453
  inhibition at 5 µM: 45.3%
SK-BR3
  inhibition at 5 µM: 22.2%
BT474
  inhibition at 5 µM: 21.3%
MDA-MB-361
  inhibition at 5 µM: 36.2%
SK/Lap^R1.0
  inhibition at 5 µM: 34.2%

## CSc1ncc(CN2CCC(N(C)Cc3ccccc3C)CC2)s1 [Example 25, N-methyl-N-(2-methylbenzyl)-N-{[1-(2-methylthiothiazol-5-yl)methyl]piperidin-4-yl}amine]
BT/Lap^R1.0
  inhibition at 5 µM: 1.4%
MDA-MB-453
  inhibition at 5 µM: 35.1%
SK-BR3
  inhibition at 5 µM: 21.9%
BT474
  inhibition at 5 µM: 15.5%
MDA-MB-361
  inhibition at 5 µM: 31.7%
SK/Lap^R1.0
  inhibition at 5 µM: 6.9%

## Cc1ccc(CN(C)C2CCN(Cc3cnc(Cl)s3)CC2)cc1 [Example 22, N-methyl-N-(4-methylbenzyl)-N-{[1-(2-chlorothiazol-5-yl)methyl]piperidin-4-yl}amine]
BT/Lap^R1.0
  inhibition at 5 µM: 16%
MDA-MB-453
  inhibition at 5 µM: 29.6%
SK-BR3
  inhibition at 5 µM: 26.2%
BT474
  inhibition at 5 µM: 14.2%
MDA-MB-361
  inhibition at 5 µM: 10.9%
SK/Lap^R1.0
  inhibition at 5 µM: 8.4%

## CCOc1ncc(CN2CCC(N(C)Cc3ccc(Cl)cc3Cl)CC2)s1 [Example 8, N-methyl-N-(2,4-dichlorobenzyl)-N-{[1-(2-ethoxythiazol-5-yl)methyl]piperidin-4-yl}amine]
BT/Lap^R1.0
  inhibition at 5 µM: 65.9%
MDA-MB-453
  inhibition at 5 µM: 71.3%
SK-BR3
  inhibition at 5 µM: 41.6%
BT474
  inhibition at 5 µM: 70.3%
MDA-MB-361
  inhibition at 5 µM: 49.2%
SK/Lap^R1.0
  inhibition at 5 µM: 12%

## COc1nccc(N2CCC(N(C)Cc3ccc(Cl)c(Cl)c3)CC2)n1 [Example 53, N-methyl-N-(3,4-dichlorobenzyl)-N-[1-(2-methoxypyrimidin-4-yl)piperidin-4-yl]amine]
BT/Lap^R1.0
  inhibition at 5 µM: 35.8%
MDA-MB-453
  inhibition at 5 µM: 60.2%
SK-BR3
  inhibition at 5 µM: 27.7%
BT474
  inhibition at 5 µM: 52.9%
MDA-MB-361
  inhibition at 5 µM: 41.7%
SK/Lap^R1.0
  inhibition at 5 µM: 16.8%

## CCOc1ncc(CN2CCC(N(C)Cc3cc(Cl)ccc3Cl)CC2)s1 [Example 10, N-methyl-N-(2,5-dichlorobenzyl)-N-{[1-(2-ethoxythiazol-5-yl)methyl]piperidin-4-yl}amine]
BT/Lap^R1.0
  inhibition at 5 µM: 9.6%
MDA-MB-453
  inhibition at 5 µM: 23.9%
SK-BR3
  inhibition at 5 µM: 9.4%
BT474
  inhibition at 5 µM: 5.6%
MDA-MB-361
  inhibition at 5 µM: 25.3%
SK/Lap^R1.0
  inhibition at 5 µM: 5.2%

## Clc1ncc(CN2CCC(NCc3ccc(Cl)c(Cl)c3)CC2)s1 [Example 11, N-(3,4-dichlorobenzyl)-N-{1-[(2-chlorothiazol-5-yl)methyl]piperidin-4-yl}amine]
BT/Lap^R1.0
  inhibition at 5 µM: 10.6%
MDA-MB-453
  inhibition at 5 µM: 32.9%
SK-BR3
  inhibition at 5 µM: 26.3%
BT474
  inhibition at 5 µM: 11%
MDA-MB-361
  inhibition at 5 µM: 13.9%
SK/Lap^R1.0
  inhibition at 5 µM: 25.1%

## CCOc1ncc(CN2CCC(N(C)Cc3ccc(Cl)c(Cl)c3)CC2)s1 [Example 3, N-methyl-N-(3,4-dichlorobenzyl)-N-{1-[(2-ethoxythiazol-5-yl)methyl]piperidin-4-yl}amine]
BT/Lap^R1.0
  inhibition at 5 µM: 67.4%
MDA-MB-453
  inhibition at 5 µM: 71.6%
SK-BR3
  inhibition at 5 µM: 41.2%
BT474
  inhibition at 5 µM: 62.9%
MDA-MB-361
  inhibition at 5 µM: 35.8%
SK/Lap^R1.0
  inhibition at 5 µM: 13.1%

## CN(Cc1c(Cl)cccc1Cl)C1CCN(Cc2cnc(Cl)s2)CC1 [Example 24, N-methyl-N-(2,6-dichlorobenzyl)-N-{[1-(2-chlorothiazol-5-yl)methyl]piperidin-4-yl}amine]
BT/Lap^R1.0
  inhibition at 5 µM: 7.1%
MDA-MB-453
  inhibition at 5 µM: 21.1%
SK-BR3
  inhibition at 5 µM: 19%
BT474
  inhibition at 5 µM: 11.1%
MDA-MB-361
  inhibition at 5 µM: 10.2%
SK/Lap^R1.0
  inhibition at 5 µM: 8.5%

## CN(Cc1cccc(F)c1)C1CCN(Cc2cnc(Cl)s2)CC1 [Example 23, N-methyl-N-(3-fluorobenzyl)-N-{[1-(2-chlorothiazol-5-yl)methyl]piperidin-4-yl}amine]
BT/Lap^R1.0
  inhibition at 5 µM: 5.7%
MDA-MB-453
  inhibition at 5 µM: 4.4%
SK-BR3
  inhibition at 5 µM: 4.2%
BT474
  inhibition at 5 µM: 2.4%
MDA-MB-361
  inhibition at 5 µM: 3.2%
SK/Lap^R1.0
  inhibition at 5 µM: 1.3%

## COc1nccc(N2CCC(N(C)Cc3ccc(C)cc3)CC2)n1 [Example 51, N-methyl-N-(4-methylbenzyl)-N-[1-(2-methoxypyrimidin-4-yl)piperidin-4-yl]amine]
BT/Lap^R1.0
  inhibition at 5 µM: 65.2%
MDA-MB-453
  inhibition at 5 µM: 70.5%
SK-BR3
  inhibition at 5 µM: 34.5%
BT474
  inhibition at 5 µM: 65.6%
MDA-MB-361
  inhibition at 5 µM: 45.7%
SK/Lap^R1.0
  inhibition at 5 µM: 22.4%

## CCOc1ncc(CN2CCC(N(C)Cc3c(F)cccc3Cl)CC2)s1 [Example 5, N-methyl-N-(2-fluoro-6-chlorobenzyl)-N-{1-[(2-ethoxythiazol-5-yl)methyl]piperidin-4-yl} amine]
BT/Lap^R1.0
  inhibition at 5 µM: 50.5%
MDA-MB-453
  inhibition at 5 µM: 67.4%
SK-BR3
  inhibition at 5 µM: 40.9%
BT474
  inhibition at 5 µM: 54.4%
MDA-MB-361
  inhibition at 5 µM: 32.8%
SK/Lap^R1.0
  inhibition at 5 µM: 11.7%

## CSc1ncc(CN2CCC(N(C)Cc3ccc(C)cc3)CC2)s1 [Example 26, N-methyl-N-(4-methylbenzyl)-N-{[1-(2-methylthiothiazol-5-yl)methyl]piperidin-4-yl}amine]
BT/Lap^R1.0
  inhibition at 5 µM: 66.7%
MDA-MB-453
  inhibition at 5 µM: 67.1%
SK-BR3
  inhibition at 5 µM: 49.6%
BT474
  inhibition at 5 µM: 68.3%
MDA-MB-361
  inhibition at 5 µM: 38.3%
SK/Lap^R1.0
  inhibition at 5 µM: 12.1%

## CSc1ncc(CN2CCC(N(C)Cc3cccc(Cl)c3)CC2)s1 [Example 28, N-methyl-N-(3-chlorobenzyl)-N-{1-[(2-methylthiothiazol-5-yl)methyl]piperidin-4-yl}amine]
BT/Lap^R1.0
  inhibition at 5 µM: 36.1%
MDA-MB-453
  inhibition at 5 µM: 62.3%
SK-BR3
  inhibition at 5 µM: 26.7%
BT474
  inhibition at 5 µM: 44.9%
MDA-MB-361
  inhibition at 5 µM: 31.1%
SK/Lap^R1.0
  inhibition at 5 µM: 7.3%

## CN(Cc1ccc(Cl)c(Cl)c1)C1CCN(Cc2cnc(Cl)s2)CC1 [Example 17, N-methyl-N-(3,4-dichlorobenzyl)-N-{1-[(2-chlorothiazol-5-yl)methyl]piperidin-4-yl}amine]
BT/Lap^R1.0
  inhibition at 5 µM: 53.4%
MDA-MB-453
  inhibition at 5 µM: 63.8%
SK-BR3
  inhibition at 5 µM: 34.3%
BT474
  inhibition at 5 µM: 45.4%
MDA-MB-361
  inhibition at 5 µM: 42.9%
SK/Lap^R1.0
  inhibition at 5 µM: 5.3%

## CSc1nccc(N2CCC(N(C)Cc3cc(Cl)ccc3Cl)CC2)n1 [Example 44, N-methyl-N-(2,5-dichlorobenzyl)-N-[1-(2-methylthiopyrimidin-4-yl)piperidin-4-yl]amine]
BT/Lap^R1.0
  inhibition at 5 µM: 63.9%
MDA-MB-453
  inhibition at 5 µM: 66.2%
SK-BR3
  inhibition at 5 µM: 32.6%
BT474
  inhibition at 5 µM: 67.1%
MDA-MB-361
  inhibition at 5 µM: 50.4%
SK/Lap^R1.0
  inhibition at 5 µM: 35.2%

## CS(=O)(=O)CCNCc1ccc(-c2ccc3ncnc(Nc4ccc(OCc5cccc(F)c5)c(Cl)c4)c3c2)o1 [lapatinib, reference compound]
BT/Lap^R1.0
  inhibition at 5 µM: 18%
MDA-MB-453
  inhibition at 5 µM: 42.6%
SK-BR3
  inhibition at 5 µM: 79%
BT474
  inhibition at 5 µM: 75.6%
MDA-MB-361
  inhibition at 5 µM: 40.2%
SK/Lap^R1.0
  inhibition at 5 µM: 10.4%

## CN(Cc1ccc(Cl)cc1Cl)C1CCN(Cc2cnc(Cl)s2)CC1 [Example 20, N-methyl-N-(2,4-dichlorobenzyl)-N-{[1-(2-chlorothiazol-5-yl)methyl]piperidin-4-yl}amine]
BT/Lap^R1.0
  inhibition at 5 µM: 61.8%
MDA-MB-453
  inhibition at 5 µM: 60.8%
SK-BR3
  inhibition at 5 µM: 47.1%
BT474
  inhibition at 5 µM: 64.1%
MDA-MB-361
  inhibition at 5 µM: 30.1%
SK/Lap^R1.0
  inhibition at 5 µM: 11.4%

## COc1cc(N2CCC(N(C)Cc3c(F)cccc3Cl)CC2)ncn1 [Example 64, N-methyl-N-(2-fluoro-6-chlorobenzyl)-N-[1-(6-methoxypyrimidin-4-yl)piperidin-4-yl] amine]
BT/Lap^R1.0
  inhibition at 5 µM: 48.5%
MDA-MB-453
  inhibition at 5 µM: 59.4%
SK-BR3
  inhibition at 5 µM: 15.5%
BT474
  inhibition at 5 µM: 45.9%
MDA-MB-361
  inhibition at 5 µM: 39.6%
SK/Lap^R1.0
  inhibition at 5 µM: 16.6%

## CCOc1ncc(CN2CCC(N(C)Cc3ccc(C#N)cc3)CC2)s1 [Example 4, N-methyl-N-(4-cyanobenzyl)-N-{1-[(2-ethoxythiazol-5-yl)methyl]piperidin-4-yl}amine]
BT/Lap^R1.0
  inhibition at 5 µM: 66.1%
MDA-MB-453
  inhibition at 5 µM: 70.5%
SK-BR3
  inhibition at 5 µM: 45.5%
BT474
  inhibition at 5 µM: 61.7%
MDA-MB-361
  inhibition at 5 µM: 51.3%
SK/Lap^R1.0
  inhibition at 5 µM: 6.7%

## CSc1ncc(CN2CCC(N(C)Cc3c(F)cccc3Cl)CC2)s1 [Example 31, N-methyl-N-(2-fluoro-6-chlorobenzyl)-N-{1-[(2-methylthiothiazol-5-yl)methyl]piperidin-4-yl}amine]
BT/Lap^R1.0
  inhibition at 5 µM: 59.9%
MDA-MB-453
  inhibition at 5 µM: 65.3%
SK-BR3
  inhibition at 5 µM: 9.2%
BT474
  inhibition at 5 µM: 49.5%
MDA-MB-361
  inhibition at 5 µM: 47.2%
SK/Lap^R1.0
  inhibition at 5 µM: 4.5%
